Laboratory results from ChEMBL document CHEMBL1914414, “Selective cholinesterase inhibition by lanostane triterpenes from fruiting bodies of Ganoderma lucidum” (Bioorg Med Chem Lett, 2011).

How the values were obtained:
Acetylcholinesterase = Acetylcholinesterase (Homo sapiens, UniProt P22303); experiment: Inhibition of AChE assessed as hydrolysis of acetylcholine preincubated for 15 mins measured after 15 mins by colorimetric Ellman assay
Cholinesterase = Cholinesterase (Homo sapiens, UniProt P06276); experiment: Inhibition of BChE assessed as hydrolysis of butrylcholine preincubated for 15 mins measured after 15 mins by colorimetric Ellman assay
Chain of Cholinesterase (P06276 whole entry): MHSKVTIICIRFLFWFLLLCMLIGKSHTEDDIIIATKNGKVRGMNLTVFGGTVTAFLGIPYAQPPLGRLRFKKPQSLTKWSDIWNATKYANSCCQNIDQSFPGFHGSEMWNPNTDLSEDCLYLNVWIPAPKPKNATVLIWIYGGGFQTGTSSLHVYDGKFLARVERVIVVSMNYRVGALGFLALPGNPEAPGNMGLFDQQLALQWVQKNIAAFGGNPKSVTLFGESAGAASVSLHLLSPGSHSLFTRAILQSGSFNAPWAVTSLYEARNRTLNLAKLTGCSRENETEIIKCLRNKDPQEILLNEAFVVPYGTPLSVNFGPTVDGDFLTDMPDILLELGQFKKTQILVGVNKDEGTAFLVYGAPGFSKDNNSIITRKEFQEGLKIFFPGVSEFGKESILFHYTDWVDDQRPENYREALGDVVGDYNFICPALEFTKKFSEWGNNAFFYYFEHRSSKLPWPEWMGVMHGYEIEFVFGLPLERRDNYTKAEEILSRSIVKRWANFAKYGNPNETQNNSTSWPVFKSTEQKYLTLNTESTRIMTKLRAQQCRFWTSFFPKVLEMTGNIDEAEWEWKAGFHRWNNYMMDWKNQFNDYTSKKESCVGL

Chain of Acetylcholinesterase (P22303 whole entry): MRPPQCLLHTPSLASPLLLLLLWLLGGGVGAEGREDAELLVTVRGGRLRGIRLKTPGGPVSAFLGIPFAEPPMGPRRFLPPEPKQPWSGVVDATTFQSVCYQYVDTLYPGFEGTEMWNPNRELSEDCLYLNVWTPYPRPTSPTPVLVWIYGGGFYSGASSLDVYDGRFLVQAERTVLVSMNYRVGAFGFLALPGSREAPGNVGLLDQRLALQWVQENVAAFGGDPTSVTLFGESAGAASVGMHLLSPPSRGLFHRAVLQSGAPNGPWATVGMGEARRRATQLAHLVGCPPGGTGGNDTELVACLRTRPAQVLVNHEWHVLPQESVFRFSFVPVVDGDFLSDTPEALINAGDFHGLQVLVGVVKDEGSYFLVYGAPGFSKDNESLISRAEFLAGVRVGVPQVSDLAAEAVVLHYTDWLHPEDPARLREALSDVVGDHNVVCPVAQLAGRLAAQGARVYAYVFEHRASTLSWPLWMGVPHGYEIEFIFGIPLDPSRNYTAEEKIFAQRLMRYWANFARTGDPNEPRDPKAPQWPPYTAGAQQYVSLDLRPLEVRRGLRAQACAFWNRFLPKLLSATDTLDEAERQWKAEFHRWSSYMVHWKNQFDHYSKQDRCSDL

SMILES	IC50 (Acetylcholinesterase)	IC50 (Cholinesterase)
C/C(=C\CC[C@@H](C)[C@H]1CC[C@@]2(C)C3=CC[C@H]4C(C)(C)[C@@H](O)CC[C@]4(C)C3=CC[C@]12C)C(=O)O [GANODERIC ACID Y]	21.1 µM	> 200 µM
COC(=O)CC[C@@H](C)[C@H]1CC(=O)[C@@]2(C)C3=C(C(=O)[C@@H](OC(C)=O)[C@]12C)[C@@]1(C)CC[C@H](O)C(C)(C)[C@@H]1CC3=O [METHYL LUCIDENATE E2]	17.1 µM	> 200 µM
CCCCOC(=O)CC[C@@H](C)[C@H]1CC[C@@]2(C)C3=C(C(=O)C[C@]12C)[C@@]1(C)CC[C@H](O)C(C)(C)[C@@H]1C[C@@H]3O	11.6 µM	> 200 µM
C[C@H](CCC=C(CO)CO)[C@H]1CC[C@@]2(C)C3=CC[C@H]4C(C)(C)C(=O)CC[C@]4(C)C3=CC[C@]12C [GANODERIOL F]	21.8 µM	> 200 µM
COC(=O)[C@H](C)CC(=O)C[C@@H](C)[C@H]1C[C@@H]2OC(C)(C)O[C@H]3C[C@H]4C(C)(C)C(=O)CC[C@]4(C)C4=C3[C@@]2(C)[C@]1(C)CC4=O [METHYL GANODERATE A ACETONIDE]	18.4 µM	> 200 µM
C[C@H](CC[C@@H](O)C(C)(C)O)[C@H]1CC[C@@]2(C)C3=CC[C@H]4C(C)(C)C(=O)CC[C@]4(C)C3=CC[C@]12C [GANODERMANONDIOL]	25.1 µM	> 200 µM
C[C@H](CC(=O)C[C@@H](C)[C@H]1CC(=O)[C@@]2(C)C3=C(C(=O)C[C@]12C)[C@@]1(C)CCC(=O)C(C)(C)[C@@H]1CC3=O)C(=O)O [GANODERIC ACID E]	18.4 µM	> 200 µM
CC(CC(=O)C[C@@H](C)[C@H]1C[C@H](O)[C@@]2(C)C3=C(C(=O)C[C@]12C)[C@@]1(C)CCC(=O)C(C)(C)[C@@H]1CC3)C(=O)O (some centres undefined) [GANOLUCIDIC ACID A]	23 µM	> 200 µM
C[C@H](CC[C@H](O)[C@](C)(O)CO)[C@H]1CC[C@@]2(C)C3=CC[C@H]4C(C)(C)C(=O)CC[C@]4(C)C3=CC[C@]12C [GANODERMANONTRIOL]	22.3 µM	> 200 µM
C/C(=C\CC[C@@H](C)[C@H]1CC[C@@]2(C)C3=C(CC[C@]12C)[C@@]1(C)CC[C@H](O)C(C)(C)[C@@H]1CC3=O)CO [LUCIDADIOL]	31 µM	156 µM
C[C@H](CCC(=O)O)[C@H]1CC(=O)[C@@]2(C)C3=C(C(=O)C[C@]12C)[C@@]1(C)CCC(=O)C(C)(C)[C@@H]1C[C@@H]3O [LUCIDENIC ACID A]	24 µM	> 200 µM
COC(=O)C(C)CC(=O)C[C@@H](C)[C@H]1C[C@H](O)[C@@]2(C)C3=C(C(=O)C[C@]12C)[C@@]1(C)CCC(=O)C(C)(C)[C@@H]1C[C@@H]3O (some centres undefined) [METHYL GANODERATE A]	30.3 µM	> 200 µM
C[C@H](CCC(=O)O)[C@H]1CC(=O)[C@@]2(C)C3=C(C(=O)C[C@]12C)[C@@]1(C)CC[C@H](O)C(C)(C)[C@@H]1C[C@@H]3O [LUCIDENIC ACID N]	25.9 µM	188 µM
CCCCOC(=O)CC[C@@H](C)[C@H]1CC[C@@]2(C)C3=C(C(=O)C[C@]12C)[C@@]1(C)CCC(=O)C(C)(C)[C@@H]1C[C@@H]3O	12.3 µM	> 200 µM
CCCCOC(=O)C(C)CC(=O)C[C@@H](C)[C@H]1CC(=O)[C@@]2(C)C3=C(C(=O)[C@@H](OC(C)=O)[C@]12C)[C@@]1(C)CC[C@H](O)C(C)(C)[C@@H]1CC3=O (some centres undefined)	9.4 µM	> 200 µM
C/C(=C\CC[C@@H](C)[C@H]1CC[C@@]2(C)C3=CC[C@H]4C(C)(C)[C@@H](O)CC[C@]4(C)C3=CC[C@]12C)CO [GANODEROL B]	26.8 µM	> 200 µM
CC(CC(=O)C[C@@H](C)[C@H]1CC(=O)[C@@]2(C)C3=C(C(=O)C[C@]12C)[C@@]1(C)CC[C@H](O)C(C)(C)[C@@H]1C[C@@H]3O)C(=O)O (some centres undefined) [GANODERIC ACID B]	22.6 µM	> 200 µM
